The results in this text go back to ChEMBL document CHEMBL1201862, “PubChem BioAssay data set” (2004).

Assay [1] has as its target T1, Sentrin-specific protease 6 (Homo sapiens, UniProt Q9GZR1).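 Further: Luminescence-based dose-response confirmatory assay of SENP6 inhibition, following up an ultra-high-throughput screen.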
T1 sequence (Q9GZR1 whole entry): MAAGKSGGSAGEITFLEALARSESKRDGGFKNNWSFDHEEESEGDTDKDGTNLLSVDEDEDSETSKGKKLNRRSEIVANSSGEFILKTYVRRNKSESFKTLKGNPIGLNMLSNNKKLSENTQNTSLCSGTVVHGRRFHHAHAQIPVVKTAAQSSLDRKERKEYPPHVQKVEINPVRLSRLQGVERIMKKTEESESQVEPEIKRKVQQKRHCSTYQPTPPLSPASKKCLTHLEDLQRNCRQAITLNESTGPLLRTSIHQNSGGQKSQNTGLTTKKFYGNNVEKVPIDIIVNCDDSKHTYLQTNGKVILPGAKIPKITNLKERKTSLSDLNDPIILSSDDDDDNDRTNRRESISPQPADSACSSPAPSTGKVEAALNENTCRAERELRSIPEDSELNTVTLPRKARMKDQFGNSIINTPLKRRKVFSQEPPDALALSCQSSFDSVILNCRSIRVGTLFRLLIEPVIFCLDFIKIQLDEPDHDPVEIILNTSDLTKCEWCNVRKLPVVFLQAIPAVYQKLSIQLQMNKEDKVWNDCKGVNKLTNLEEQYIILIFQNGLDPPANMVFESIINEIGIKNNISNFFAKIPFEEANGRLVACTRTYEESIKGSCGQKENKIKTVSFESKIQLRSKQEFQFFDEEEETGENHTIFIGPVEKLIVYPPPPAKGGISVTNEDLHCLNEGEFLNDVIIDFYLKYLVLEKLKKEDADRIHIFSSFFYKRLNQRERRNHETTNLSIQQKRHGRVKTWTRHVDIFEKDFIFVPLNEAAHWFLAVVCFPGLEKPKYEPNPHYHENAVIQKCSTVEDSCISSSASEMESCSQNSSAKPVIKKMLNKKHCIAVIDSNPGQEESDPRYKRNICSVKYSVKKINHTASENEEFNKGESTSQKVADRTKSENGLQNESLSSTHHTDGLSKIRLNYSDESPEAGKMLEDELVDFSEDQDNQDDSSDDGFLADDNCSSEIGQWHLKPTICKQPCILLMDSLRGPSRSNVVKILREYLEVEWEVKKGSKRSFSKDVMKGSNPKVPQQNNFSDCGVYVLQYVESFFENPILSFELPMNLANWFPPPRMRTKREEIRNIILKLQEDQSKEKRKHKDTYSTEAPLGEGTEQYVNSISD
The assay is classed as functional.

The target in assay [2] is T2, Sentrin-specific protease 8 (Homo sapiens, UniProt Q96LD8).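 Further: luminescence read-out of SENP8 inhibition, dose-response confirmation following an ultra-high-throughput screen.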
T2 sequence (Q96LD8 whole entry): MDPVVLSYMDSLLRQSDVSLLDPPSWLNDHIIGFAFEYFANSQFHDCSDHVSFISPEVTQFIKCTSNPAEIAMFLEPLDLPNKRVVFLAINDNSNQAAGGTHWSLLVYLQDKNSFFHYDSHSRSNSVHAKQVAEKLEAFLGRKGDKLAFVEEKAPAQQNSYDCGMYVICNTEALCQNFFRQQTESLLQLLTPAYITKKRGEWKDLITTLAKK
In kind it is functional.

The target of a further assay is T3, Caspase-3 (Homo sapiens, UniProt P42574).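 Further: Dose-response selectivity test against caspase-3 for candidate inhibitors of sentrin-specific proteases (SENPs).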
T3 sequence (P42574 whole entry): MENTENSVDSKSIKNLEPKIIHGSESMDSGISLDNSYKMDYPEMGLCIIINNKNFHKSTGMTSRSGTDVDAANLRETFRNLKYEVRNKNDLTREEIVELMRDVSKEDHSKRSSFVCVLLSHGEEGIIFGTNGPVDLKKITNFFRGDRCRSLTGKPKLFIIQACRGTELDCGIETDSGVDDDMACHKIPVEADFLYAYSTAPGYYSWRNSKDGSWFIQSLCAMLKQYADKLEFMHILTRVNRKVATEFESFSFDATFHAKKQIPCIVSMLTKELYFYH
The assay is classed as functional.

The target in assay [3] is T4, Sentrin-specific protease 7 (Homo sapiens, UniProt Q9BQF6).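 Further: Luminescence-based dose-response confirmation of ultra-high-throughput screening hits, measuring inhibition of SENP7.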
T4 sequence (Q9BQF6 whole entry): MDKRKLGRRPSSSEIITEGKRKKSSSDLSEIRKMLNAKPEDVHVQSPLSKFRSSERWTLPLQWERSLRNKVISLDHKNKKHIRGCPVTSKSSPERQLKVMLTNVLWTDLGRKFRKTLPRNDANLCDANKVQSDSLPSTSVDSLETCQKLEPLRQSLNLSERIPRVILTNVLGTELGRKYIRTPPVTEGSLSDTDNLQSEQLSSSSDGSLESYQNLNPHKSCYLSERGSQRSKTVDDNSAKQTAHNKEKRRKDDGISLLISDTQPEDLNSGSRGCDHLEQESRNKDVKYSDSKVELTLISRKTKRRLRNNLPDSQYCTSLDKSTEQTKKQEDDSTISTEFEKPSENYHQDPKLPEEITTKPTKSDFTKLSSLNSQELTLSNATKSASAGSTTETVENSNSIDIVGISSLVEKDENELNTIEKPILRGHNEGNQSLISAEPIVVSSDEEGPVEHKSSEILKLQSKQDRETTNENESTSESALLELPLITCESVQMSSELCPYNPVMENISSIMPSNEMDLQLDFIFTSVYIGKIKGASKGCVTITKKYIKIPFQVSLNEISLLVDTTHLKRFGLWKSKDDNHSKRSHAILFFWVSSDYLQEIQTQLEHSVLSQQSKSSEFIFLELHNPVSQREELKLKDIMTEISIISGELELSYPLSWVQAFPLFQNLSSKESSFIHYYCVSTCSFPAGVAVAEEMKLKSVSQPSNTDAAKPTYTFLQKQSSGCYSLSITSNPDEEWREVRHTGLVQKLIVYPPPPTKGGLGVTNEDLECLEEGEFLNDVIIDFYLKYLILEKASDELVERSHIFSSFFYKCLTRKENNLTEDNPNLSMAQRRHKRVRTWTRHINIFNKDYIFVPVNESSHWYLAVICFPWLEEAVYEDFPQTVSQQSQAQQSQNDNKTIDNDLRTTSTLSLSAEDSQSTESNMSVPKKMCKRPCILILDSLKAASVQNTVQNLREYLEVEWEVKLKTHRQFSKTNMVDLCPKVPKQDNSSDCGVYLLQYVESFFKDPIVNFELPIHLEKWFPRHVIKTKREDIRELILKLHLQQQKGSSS
In kind it is functional.

Assay [4] is described as follows: microbe, parasite or virus in culture. The assay is classed as functional. The note with it: Mycobacterium tuberculosis.
In assay [5] the target is T5, Replicative DNA helicase DnaB (Mycobacterium tuberculosis, UniProt P9WMR3).
T5 sequence (P9WMR3 whole entry): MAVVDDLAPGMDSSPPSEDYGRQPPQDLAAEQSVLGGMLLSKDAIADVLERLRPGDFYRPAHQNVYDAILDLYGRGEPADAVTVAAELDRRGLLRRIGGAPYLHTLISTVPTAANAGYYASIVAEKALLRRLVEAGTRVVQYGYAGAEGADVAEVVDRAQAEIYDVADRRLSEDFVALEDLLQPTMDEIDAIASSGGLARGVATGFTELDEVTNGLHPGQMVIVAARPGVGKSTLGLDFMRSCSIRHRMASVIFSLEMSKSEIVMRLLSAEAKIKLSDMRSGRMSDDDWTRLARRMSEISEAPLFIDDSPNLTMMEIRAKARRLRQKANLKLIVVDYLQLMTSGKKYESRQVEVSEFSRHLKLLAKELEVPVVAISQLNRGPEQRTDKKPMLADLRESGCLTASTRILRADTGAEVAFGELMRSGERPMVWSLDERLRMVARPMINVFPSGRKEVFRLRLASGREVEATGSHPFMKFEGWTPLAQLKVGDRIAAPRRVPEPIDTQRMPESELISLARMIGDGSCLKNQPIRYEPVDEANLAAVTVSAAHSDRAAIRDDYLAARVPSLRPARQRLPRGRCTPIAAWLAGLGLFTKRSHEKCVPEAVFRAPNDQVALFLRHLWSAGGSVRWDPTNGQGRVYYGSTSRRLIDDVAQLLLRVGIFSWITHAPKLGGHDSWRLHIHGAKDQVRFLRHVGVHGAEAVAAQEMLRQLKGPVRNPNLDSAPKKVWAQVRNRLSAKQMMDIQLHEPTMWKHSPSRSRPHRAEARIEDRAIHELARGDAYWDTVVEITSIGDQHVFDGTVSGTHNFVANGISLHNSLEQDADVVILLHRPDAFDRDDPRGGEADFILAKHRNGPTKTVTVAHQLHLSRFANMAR
In words: DnaB intein splicing inhibitors, dose response, biochemical, cell-free fluorescence (AID 449749). The assay is classed as functional.

The target of another assay is T6, Protein RecA (Mycobacterium tuberculosis, UniProt P9WHJ3).
T6 sequence (P9WHJ3 whole entry): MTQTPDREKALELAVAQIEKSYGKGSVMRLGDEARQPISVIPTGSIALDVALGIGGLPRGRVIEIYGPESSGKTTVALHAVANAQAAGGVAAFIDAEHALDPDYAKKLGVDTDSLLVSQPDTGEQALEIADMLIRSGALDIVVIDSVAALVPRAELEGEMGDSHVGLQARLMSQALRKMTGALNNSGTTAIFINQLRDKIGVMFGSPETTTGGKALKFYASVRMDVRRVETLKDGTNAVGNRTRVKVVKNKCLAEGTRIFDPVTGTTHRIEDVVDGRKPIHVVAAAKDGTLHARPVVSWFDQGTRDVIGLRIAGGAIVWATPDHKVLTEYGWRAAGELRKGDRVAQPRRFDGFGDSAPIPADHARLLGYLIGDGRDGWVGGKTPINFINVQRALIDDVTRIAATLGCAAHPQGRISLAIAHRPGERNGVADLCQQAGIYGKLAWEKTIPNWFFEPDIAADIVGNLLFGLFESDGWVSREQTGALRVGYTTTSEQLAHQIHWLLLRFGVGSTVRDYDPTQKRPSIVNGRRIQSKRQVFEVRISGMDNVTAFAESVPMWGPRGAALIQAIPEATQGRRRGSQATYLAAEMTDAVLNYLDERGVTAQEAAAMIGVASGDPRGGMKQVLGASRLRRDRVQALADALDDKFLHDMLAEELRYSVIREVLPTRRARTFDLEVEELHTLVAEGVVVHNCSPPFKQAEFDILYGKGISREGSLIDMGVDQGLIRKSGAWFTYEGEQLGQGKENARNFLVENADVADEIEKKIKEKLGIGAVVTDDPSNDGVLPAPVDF
Description: Fluorescence Cell-Free Homogeneous Dose Retest to Identify Inhibitors of RecA-Intein Splicing Activity. [Related pubchem assays (depositor defined):AID2097, AID2223, AID489010, AID492950]. The assay is classed as functional.

The nature of assay [6]: viability of HCT116 lacking mutant beta-catenin – cell-based, human colon tumor, dose response (AID 1045).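 Further: HCT116 colon tumor cells with beta catenin knocked out; cells exposed to compound for 60 hours.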 In kind it is functional.
Assay [7] can be described thus: Luminescence Cell-Based Dose Confirmation HTS to Identify Inhibitors of Platelet Dense Granule Release. [Related pubchem assays: 1663 (Primary HTS), 1678 (Summary of Project)]. The assay is classed as functional.
Assay [8] can be described thus: Luminescence Cell-Based Dose Confirmation HTS to Identify Activators of 5'UTR Stem-Loop Driven Alpha-Synuclein mRNA Translation in H4 Neuroglioblastoma Cells. [Related pubchem assays: 1829 (Project Summary), 1814 (Primary HTS)]. The assay is classed as functional.
The nature of assay [9]: Luminescence Cell-Based Dose Response HTS to Identify Activators of Luciferase Translation or Activity in H4 […] Cells. [Related pubchem assays: 1829 (Project Summary), 1814 (Primary HTS)]. In kind it is functional.
Assay [10] can be described thus: viability of PTEN-deleted HCT116 cells – cell-based, HCT116 PTEN knockout, dose response (AID 1047).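 Further: HCT116 colon tumor cells with PTEN knocked out; cells exposed to compound for 60 hours before readout; potency for loss of cell viability measured by luminescence.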 The assay is classed as functional.
The test system of the next assay is H4. In words: Luminescence Cell-Based Dose Response HTS to Identify Activators of 5'UTR Stem-Loop Driven Prion Protein mRNA Translation in H4 Neuroglioblastoma Cells. [Related pubchem assays: 1829 (Project Summary), 1814 (Primary HTS)]. In kind it is functional. The settings on record: Homo sapiens.
Assay [11] has as its target Luciferin 4-monooxygenase (Photinus pyralis, UniProt P08659). In words: inhibition of purified Photinus pyralis luciferase – biochemical, luminescence, dose response (AID 1891).
The nature of assay [12]: NIH-3T3 fibroblast cytotoxicity, dose response, cytotoxicity control, cell-based, fluorescence, Alamar Blue, secondary assay (AID 2327).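 Further: NIH-3T3 mouse fibroblasts cultured with fluconazole at 8 µg/mL.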 In kind it is functional. In general terms: Alamar Blue is a resazurin reagent that responds to reducing activity.

Activity calls are given as the source filed them.

Broadly, the IC50 is the concentration that gives 50% inhibition. The AC50 is the concentration at which the activity in the assay is half-maximal. What is called EC50 is the concentration needed to bring the measured effect to its halfway point.

Sequence of Luciferin 4-monooxygenase (P08659 whole entry): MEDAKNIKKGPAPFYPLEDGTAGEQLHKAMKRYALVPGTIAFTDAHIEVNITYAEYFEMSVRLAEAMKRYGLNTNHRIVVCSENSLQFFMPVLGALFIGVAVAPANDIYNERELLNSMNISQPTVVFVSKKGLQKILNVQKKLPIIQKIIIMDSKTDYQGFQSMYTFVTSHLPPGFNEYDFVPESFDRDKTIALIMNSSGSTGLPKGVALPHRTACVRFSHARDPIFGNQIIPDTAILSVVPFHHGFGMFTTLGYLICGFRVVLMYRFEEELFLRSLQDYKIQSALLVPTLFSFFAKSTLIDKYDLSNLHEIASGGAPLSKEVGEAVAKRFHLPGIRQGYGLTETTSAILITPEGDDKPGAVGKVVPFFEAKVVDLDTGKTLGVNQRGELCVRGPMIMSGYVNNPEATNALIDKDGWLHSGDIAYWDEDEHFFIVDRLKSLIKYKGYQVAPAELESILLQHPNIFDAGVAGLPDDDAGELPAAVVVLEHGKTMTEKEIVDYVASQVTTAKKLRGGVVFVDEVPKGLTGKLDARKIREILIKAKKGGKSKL

With `O=C(Nc1ccccc1)Nc1ccccc1C(=O)NCc1ccccc1`, the IC50 in [1] is > 100 µM (inactive); in [2] it was > 100 µM (inactive); at Caspase-3 it was 39.4 µM (active); in [3] it was 6.13 µM (active).
Take `Brc1c(-c2ccccc2)nc2n1Cc1ccccc1-2`: the IC50 in assay [1] is 6.75 µM (active); in [2], 7.57 µM (active); on Caspase-3, 15 µM (active); in assay [3] it was 5.23 µM (active).
As for `CC(C)(C)c1csc(NC(=O)c2c(F)c(F)c(F)c(F)c2F)n1`, the CC50 in assay [4] is 34 µM (active). The AC50 in [5] was 26 µM (active). Further, at Protein RecA, the EC50 was 18.4 µM (active).
`Cc1ccc2[nH]c(/C(C#N)=C/c3c[nH]nc3-c3ccc(F)cc3)nc2c1`: the EC50 in assay [6] is 9.64 µM (active); in assay [7], 46.2 µM (active); in assay [8], > 120 µM (not active); in [9], 5.96 µM (active); in assay [10] it was 7.74 µM (active); in the assay on H4, > 120 µM (not active). Also, the EC50 in assay [11] is recorded as > 112 µM (not active). Besides, the CC50 in assay [4] is 26.9 µM (active).
With `O=C(OCc1ccccc1Cl)c1cccnc1Cl`, the IC50 in assay [1] is 36.6 µM (active); in assay [2] it was 27.3 µM (active); on Caspase-3, 23.5 µM (active); in [3] it was 11.8 µM (active).
With `CCS(=O)(=O)c1ccc(-c2cccc(NC(=O)COc3ccc(Cl)cc3)c2)nn1`, the EC50 in assay [12] was > 150 µM (inactive).
`CCOC(=O)/C(C#N)=C/c1ccc(N2CCCCC2)cc1`: the IC50 is 41.4 µM (active) in [1], 31.6 µM (active) in assay [2], 23.4 µM (active) at Caspase-3 and 7.1 µM (active) in assay [3].
For the molecule `Clc1cccc(-c2ccc(-c3nc4ccccn4c3NCc3ccccc3)cc2)c1`, the IC50 was 9.6 µM (active) in assay [1], 18 µM (active) in [2], 12.9 µM (active) on Caspase-3 and 7.22 µM (active) in assay [3].
